Consider one compound from paper PMC5218480 (PLoS ONE, 2017).

In this experiment the test system is MV-4-11 cells. Kind of experiment: Gene expression microarray analysis (Affymetrix PrimeView) and GSEA. In kind it is cell-based, human. On the set-up: RFU PODN (11730768_x_at) / Fold change /veh PODN (11730768_x_at) / RFU LINC00158 (11744669_a_at) / Fold change /veh LINC00158 (11744669_a_at) / RFU DUSP10 (11751237_a_at) / Fold change /veh DUSP10 (11751237_a_at) / RFU ID3 (11757404_x_at) / Fold change /veh ID3 (11757404_x_at) / RFU PLEKHG5 (11737974_s_at) / Fold change /veh PLEKHG5 (11737974_s_at) / RFU LRRC4B (11730491_at) / Fold change /veh LRRC4B (11730491_at) / RFU GIMAP4 (11747438_a_at) / Fold change /veh GIMAP4 (11747438_a_at) / RFU KRT8 (11758183_x_at) / Fold change /veh KRT8 (11758183_x_at) / RFU CNN1 (11734310_a_at) / Fold change /veh CNN1 (11734310_a_at) / RFU VPS37D (11726825_at) / Fold change /veh VPS37D (11726825_at) / RFU C10orf10 (11716522_x_at) / Fold change /veh C10orf10 (11716522_x_at) / RFU KIR2DL2 /// KIR2DL4 /// KIR2DL5A /// KIR2DL5B /// KIR2DS1 /// KIR2DS2 /// KIR2DS3 /// KIR2DS4 /// KIR3DL3 /// KIR3DL3 /// KIR3DS1 (11738374_at) / Fold change /veh KIR2DL2 /// KIR2DL4 /// KIR2DL5A /// KIR2DL5B /// KIR2DS1 /// KIR2DS2 /// KIR2DS3 /// KIR2DS4 /// KIR3DL3 /// KIR3DL3 /// KIR3DS1 (11738374_at) / RFU C1QL1 (11718748_at) / Fold change /veh C1QL1 (11718748_at) / RFU TMPRSS4 (11747572_a_at) / Fold change /veh TMPRSS4 (11747572_a_at) / RFU HAMP (11756126_x_at) / Fold change /veh HAMP (11756126_x_at) / RFU RNFT2 (11725882_a_at) / Fold change /veh RNFT2 (11725882_a_at) / RFU NR4A2 (11747474_a_at) / Fold change /veh NR4A2 (11747474_a_at) / RFU ABCC12 (11746883_a_at) / Fold change /veh ABCC12 (11746883_a_at) / RFU TMEM136 (11760407_x_at) / Fold change /veh TMEM136 (11760407_x_at) / RFU CLDN22 /// WWC2 (11732394_at) / Fold change /veh CLDN22 /// WWC2 (11732394_at) / RFU HLA-DPB1 (11760878_x_at) / Fold change /veh HLA-DPB1 (11760878_x_at) / RFU SPINT1 (11716480_a_at) / Fold change /veh SPINT1 (11716480_a_at) / RFU GAP43 (11754022_s_at) / Fold change /veh GAP43 (11754022_s_at) / RFU A4GNT (11735810_at) / Fold change /veh A4GNT (11735810_at) / RFU PRB3 (11715151_x_at) / Fold change /veh PRB3 (11715151_x_at) / RFU TUBB4B (11761932_at) / Fold change /veh TUBB4B (11761932_at) / RFU CAPN14 (11732068_a_at) / Fold change /veh CAPN14 (11732068_a_at) / RFU TMCC2 (11721928_a_at) / Fold change /veh TMCC2 (11721928_a_at) / RFU IRGQ (11745062_a_at) / Fold change /veh IRGQ (11745062_a_at) / RFU FAM174B (11720279_a_at) / Fold change /veh FAM174B (11720279_a_at) / RFU TMPRSS4 (11748680_a_at) / Fold change /veh TMPRSS4 (11748680_a_at) / RFU FAM212B (11763350_a_at) / Fold change /veh FAM212B (11763350_a_at) / RFU PLEKHG5 (11743358_a_at) / Fold change /veh PLEKHG5 (11743358_a_at) / RFU ZSCAN30 (11745921_a_at) / Fold change /veh ZSCAN30 (11745921_a_at) / RFU CMKLR1 (11741424_a_at) / Fold change /veh CMKLR1 (11741424_a_at) / RFU LOC101060620 /// MAPK8IP1 (11723275_at) / Fold change /veh LOC101060620 /// MAPK8IP1 (11723275_at) / RFU SPTSSB (11747773_x_at) / Fold change /veh SPTSSB (11747773_x_at) / RFU PRSS12 (11739890_at) / Fold change /veh PRSS12 (11739890_at) / RFU BIN1 (11741810_x_at) / Fold change /veh BIN1 (11741810_x_at) / RFU WNT11 (11732464_a_at) / Fold change /veh WNT11 (11732464_a_at) / RFU C10orf10 (11716521_a_at) / Fold change /veh C10orf10 (11716521_a_at) / RFU C5orf56 (11738089_at) / Fold change /veh C5orf56 (11738089_at) / RFU CYB561 (11721691_x_at) / Fold change /veh CYB561 (11721691_x_at) / RFU ANKRD19P (11752326_a_at) / Fold change /veh ANKRD19P (11752326_a_at) / RFU OR2T12 /// OR2T33 /// OR2T8 (11738714_s_at) / Fold change /veh OR2T12 /// OR2T33 /// OR2T8 (11738714_s_at) / RFU VCAN (11748164_a_at) / Fold change /veh VCAN (11748164_a_at) / RFU JSRP1 (11732532_at) / Fold change /veh JSRP1 (11732532_at) / RFU KRTAP10-11 (11738290_x_at) / Fold change /veh KRTAP10-11 (11738290_x_at) / RFU MYO3A (11730013_a_at) / Fold change /veh MYO3A (11730013_a_at) / RFU EBF3 (11725865_a_at) / Fold change /veh EBF3 (11725865_a_at) / RFU CAMK2N1 (11719241_x_at) / Fold change /veh CAMK2N1 (11719241_x_at) / RFU C5orf56 (11738088_a_at) / Fold change /veh C5orf56 (11738088_a_at) / RFU OLFML3 (11715873_a_at) / Fold change /veh OLFML3 (11715873_a_at) / RFU LOC100653217 /// NTM (11731650_a_at) / Fold change /veh LOC100653217 /// NTM (11731650_a_at) / RFU MAPK11 (11762145_a_at) / Fold change /veh MAPK11 (11762145_a_at) / RFU FIZ1 (11724087_x_at) / Fold change /veh FIZ1 (11724087_x_at) / RFU OASL (11726364_x_at) / Fold change /veh OASL (11726364_x_at) / RFU SOX15 (11748057_x_at) / Fold change /veh SOX15 (11748057_x_at) / RFU CD79A (11719716_a_at) / Fold change /veh CD79A (11719716_a_at) / RFU HIST1H1D (11736915_at) / Fold change /veh HIST1H1D (11736915_at) / RFU CASKIN2 (11723855_a_at) / Fold change /veh CASKIN2 (11723855_a_at) / RFU LOC730098 (11760151_x_at) / Fold change /veh LOC730098 (11760151_x_at) / RFU OR4N2 (11742367_at) / Fold change /veh OR4N2 (11742367_at) / RFU PRRT2 (11749266_a_at) / Fold change /veh PRRT2 (11749266_a_at) / RFU SNX32 (11753110_a_at) / Fold change /veh SNX32 (11753110_a_at) / RFU CDHR5 (11726645_a_at) / Fold change /veh CDHR5 (11726645_a_at) / RFU RCAN1 (11760418_a_at) / Fold change /veh RCAN1 (11760418_a_at) / RFU FAM167A (11723789_a_at) / Fold change /veh FAM167A (11723789_a_at) / RFU FAM26E (11764081_at) / Fold change /veh FAM26E (11764081_at) / RFU ISYNA1 (11749810_s_at) / Fold change /veh ISYNA1 (11749810_s_at) / RFU ACY1 (11761880_at) / Fold change /veh ACY1 (11761880_at) / RFU 11764098_at / Fold change /veh 11764098_at / RFU SAMD14 (11745864_x_at) / Fold change /veh SAMD14 (11745864_x_at) / RFU NPB (11741838_a_at) / Fold change /veh NPB (11741838_a_at) / RFU TMPRSS6 (11731388_a_at) / Fold change /veh TMPRSS6 (11731388_a_at) / RFU KRTAP10-2 (11738614_at) / Fold change /veh KRTAP10-2 (11738614_at) / RFU ARHGAP8 /// PRR5-ARHGAP8 (11727945_x_at) / Fold change /veh ARHGAP8 /// PRR5-ARHGAP8 (11727945_x_at) / RFU KRTAP5-7 /// NADSYN1 (11734609_at) / Fold change /veh KRTAP5-7 /// NADSYN1 (11734609_at) / RFU RASL12 (11751679_a_at) / Fold change /veh RASL12 (11751679_a_at) / RFU CDKN2B (11736163_a_at) / Fold change /veh CDKN2B (11736163_a_at) / RFU PRF1 (11729649_at) / Fold change /veh PRF1 (11729649_at) / RFU, ZNF638 /// ZNF638-IT1 / Fold change vs veh, ZNF638 /// ZNF638-IT1 / RFU, PANK3 / Fold change vs veh, PANK3 / RFU, SH3YL1 / Fold change vs veh, SH3YL1 / RFU, ZEB2 / Fold change vs veh, ZEB2 / RFU, NRIP1 / Fold change vs veh, NRIP1 / RFU, PTTG1IP / Fold change vs veh, PTTG1IP / RFU, CAPN2 / Fold change vs veh, CAPN2 / RFU, MED14 / Fold change vs veh, MED14 / RFU, SNORA58 / Fold change vs veh, SNORA58 / RFU, C1orf63 / Fold change vs veh, C1orf63 / RFU, LRRFIP1 / Fold change vs veh, LRRFIP1 / RFU, NDUFAF7 / Fold change vs veh, NDUFAF7 / RFU, SLC12A2 / Fold change vs veh, SLC12A2 / RFU, IBTK / Fold change vs veh, IBTK / RFU, ESF1 / Fold change vs veh, ESF1 / Fold change vs veh, TMEM50B / RFU, TAOK1 / Fold change vs veh, TAOK1 / RFU, ACBD3 / Fold change vs veh, ACBD3 / RFU, TMA16 / Fold change vs veh, TMA16 / RFU, RWDD3 / Fold change vs veh, RWDD3 / RFU, BCAT1 / Fold change vs veh, BCAT1 / RFU, EDEM3 / Fold change vs veh, EDEM3 / RFU, TMEM33 / Fold change vs veh, TMEM33 / RFU, WDR75 / Fold change vs veh, WDR75 / RFU, AHCTF1 / Fold change vs veh, AHCTF1 / RFU, TFRC / Fold change vs veh, TFRC / RFU, ZDHHC17 / Fold change vs veh, ZDHHC17 / RFU, NOM1 / Fold change vs veh, NOM1 / RFU, ARL8B / Fold change vs veh, ARL8B / RFU, ZBTB11 / Fold change vs veh, ZBTB11 / RFU, TAMM41 / Fold change vs veh, TAMM41 / RFU, KIAA1704 /// LOC100996395 / Fold change vs veh, KIAA1704 /// LOC100996395 / RFU, ING1 / Fold change vs veh, ING1 / RFU, TRMT61B / Fold change vs veh, TRMT61B / RFU, FUBP3 / Fold change vs veh, FUBP3 / RFU, TP53 / Fold change vs veh, TP53 / RFU, TNKS2 / Fold change vs veh, TNKS2 / RFU, ZFP14 / Fold change vs veh, ZFP14 / RFU, ACTR2 / Fold change vs veh, ACTR2 / RFU, PPP3R1 / Fold change vs veh, PPP3R1 / RFU, PIK3R1 / Fold change vs veh, PIK3R1 / RFU, HNRNPA1 / Fold change vs veh, HNRNPA1 / RFU, RNF170 / Fold change vs veh, RNF170 / RFU, ZNF28 / Fold change vs veh, ZNF28 / RFU, RNGTT / Fold change vs veh, RNGTT / RFU, OGT / Fold change vs veh, OGT / RFU, BRD1 / Fold change vs veh, BRD1 / RFU, MARS / Fold change vs veh, MARS / RFU, ZNF655 / Fold change vs veh, ZNF655 / RFU, FAHD1 / Fold change vs veh, FAHD1 / RFU, BDP1 / Fold change vs veh, BDP1 / RFU, LRRCC1 / Fold change vs veh, LRRCC1 / RFU, ARID1A / Fold change vs veh, ARID1A / RFU, ZNF146 / Fold change vs veh, ZNF146 / RFU, ZNF330 / Fold change vs veh, ZNF330 / RFU, GPN3 / Fold change vs veh, GPN3 / RFU, C9orf123 / Fold change vs veh, C9orf123 / RFU, N4BP2L2 / Fold change vs veh, N4BP2L2 / RFU, ARFIP1 / Fold change vs veh, ARFIP1 / RFU, FAM179B / Fold change vs veh, FAM179B / RFU, BCL10 / Fold change vs veh, BCL10 / RFU, UHRF1BP1L / Fold change vs veh, UHRF1BP1L / RFU, BET1 / Fold change vs veh, BET1 / RFU, CNOT2 / Fold change vs veh, CNOT2 / RFU, ZNF268 / Fold change vs veh, ZNF268 / Fold change vs veh, ZNF507 / RFU, DGCR2 / Fold change vs veh, DGCR2 / RFU, WDSUB1 / Fold change vs veh, WDSUB1 / Fold change vs veh, HSP90B1 /// MIR3652 / RFU, ADSS / Fold change vs veh, ADSS / RFU, GK / Fold change vs veh, GK / RFU, ZNF148 / Fold change vs veh, ZNF148 / RFU, TAF9 / Fold change vs veh, TAF9 / RFU, SLC1A5 / Fold change vs veh, SLC1A5 / RFU, SLMO2 / Fold change vs veh, SLMO2 / RFU, ABCC4 / Fold change vs veh, ABCC4 / RFU, LOC101060439 /// RAP1B / Fold change vs veh, LOC101060439 /// RAP1B / RFU, RFX7 / Fold change vs veh, RFX7 / RFU, GTPBP10 / Fold change vs veh, GTPBP10 / RFU, CNEP1R1 / Fold change vs veh, CNEP1R1 / RFU, BIVM-ERCC5 /// ERCC5 / Fold change vs veh, BIVM-ERCC5 /// ERCC5 / RFU, ILF3 / Fold change vs veh, ILF3 / RFU 11762660_at / Fold change /veh 11762660_at / RFU VCAN (11757783_s_at) / Fold change /veh VCAN (11757783_s_at) / RFU DDX43 (11728927_at) / Fold change /veh DDX43 (11728927_at) / RFU KRT8 (11758188_x_at) / Fold change /veh KRT8 (11758188_x_at) / RFU NKD1 (11759106_at) / Fold change /veh NKD1 (11759106_at) / RFU SRD5A1 (11742802_a_at) / Fold change /veh SRD5A1 (11742802_a_at) / RFU TPSAB1 /// TPSB2 (11721975_s_at) / Fold change /veh TPSAB1 /// TPSB2 (11721975_s_at) / RFU GSTM3 (11746129_a_at) / Fold change /veh GSTM3 (11746129_a_at) / RFU IL23R (11737362_x_at) / Fold change /veh IL23R (11737362_x_at) / RFU TMEM51 (11727254_a_at) / Fold change /veh TMEM51 (11727254_a_at) / RFU PIWIL2 (11732686_x_at) / Fold change /veh PIWIL2 (11732686_x_at) / RFU ORM1 (11744905_x_at) / Fold change /veh ORM1 (11744905_x_at) / RFU CCDC152 (11743942_at) / Fold change /veh CCDC152 (11743942_at) / RFU ECM1 (11717891_a_at) / Fold change /veh ECM1 (11717891_a_at) / RFU IL23R (11748794_a_at) / Fold change /veh IL23R (11748794_a_at) / RFU TNFAIP8L3 (11732012_x_at) / Fold change /veh TNFAIP8L3 (11732012_x_at) / RFU MBOAT4 (11741988_at) / Fold change /veh MBOAT4 (11741988_at) / RFU 11764193_at / Fold change /veh 11764193_at / RFU TMEM53 (11763286_at) / Fold change /veh TMEM53 (11763286_at) / RFU MAGEB2 (11727129_at) / Fold change /veh MAGEB2 (11727129_at) / RFU TMEM200A (11744735_a_at) / Fold change /veh TMEM200A (11744735_a_at) / RFU CCDC152 (11751479_a_at) / Fold change /veh CCDC152 (11751479_a_at) / RFU FAM211A (11726209_a_at) / Fold change /veh FAM211A (11726209_a_at) / RFU RGS16 (11746705_a_at) / Fold change /veh RGS16 (11746705_a_at) / RFU VCAN (11755009_s_at) / Fold change /veh VCAN (11755009_s_at) / RFU RHOB (11743442_s_at) / Fold change /veh RHOB (11743442_s_at) / RFU RGS16 (11720943_a_at) / Fold change /veh RGS16 (11720943_a_at) / RFU RGS16 (11720944_at) / Fold change /veh RGS16 (11720944_at) / RFU, VPS4B / Fold change vs veh, VPS4B / RFU, CREB1 / Fold change vs veh, CREB1 / RFU, DNAJC13 / Fold change vs veh, DNAJC13 / RFU, GNAQ / Fold change vs veh, GNAQ / RFU, CDK5R1 / Fold change vs veh, CDK5R1 / RFU, ZRANB3 / Fold change vs veh, ZRANB3 / RFU, CUL4A / Fold change vs veh, CUL4A / RFU, CCNY / Fold change vs veh, CCNY / RFU, UFL1 / Fold change vs veh, UFL1 / RFU, COG3 / Fold change vs veh, COG3 / RFU, DIAPH2 / Fold change vs veh, DIAPH2 / RFU, SKA2 / Fold change vs veh, SKA2 / RFU, AFF3 / Fold change vs veh, AFF3 / RFU, LMF1 / Fold change vs veh, LMF1 / RFU, IPO11 / Fold change vs veh, IPO11 / RFU, DFFB / Fold change vs veh, DFFB / RFU, FOXP1 / Fold change vs veh, FOXP1 / RFU, CARD8 / Fold change vs veh, CARD8 / RFU, STRN3 / Fold change vs veh, STRN3 / RFU, ADK / Fold change vs veh, ADK / RFU, RASSF2 / Fold change vs veh, RASSF2 / RFU, WIPF1 / Fold change vs veh, WIPF1 / RFU, LARP1B / Fold change vs veh, LARP1B / RFU, RASA1 / Fold change vs veh, RASA1 / RFU, RB1 / Fold change vs veh, RB1 / RFU, PPFIA1 / Fold change vs veh, PPFIA1 / RFU, MAT2A / Fold change vs veh, MAT2A / RFU, CCT5 / Fold change vs veh, CCT5 / RFU, WDR92 / Fold change vs veh, WDR92 / RFU, CUX1 / Fold change vs veh, CUX1 / RFU, TTC7A / Fold change vs veh, TTC7A / RFU, TMEM135 / Fold change vs veh, TMEM135 / RFU, DEPTOR / Fold change vs veh, DEPTOR / RFU, CPM / Fold change vs veh, CPM / RFU, DNAJB6 / Fold change vs veh, DNAJB6 / RFU, CACNA2D3 / Fold change vs veh, CACNA2D3 / RFU, DTX4 / Fold change vs veh, DTX4 / RFU, TFCP2 / Fold change vs veh, TFCP2 / RFU, GMCL1 /// GMCL1P1 / Fold change vs veh, GMCL1 /// GMCL1P1 / RFU, AEBP2 / Fold change vs veh, AEBP2 / RFU, SNHG1 /// SNORD22 /// SNORD25 /// SNORD26 /// SNORD27 /// SNORD28 /// SNORD29 /// SNORD31 / Fold change vs veh, SNHG1 /// SNORD22 /// SNORD25 /// SNORD26 /// SNORD27 /// SNORD28 /// SNORD29 /// SNORD31 / Fold change (Aza/veh), C12orf56 (ProbeSet 11735607_a_at) / Fold change (ACY-1035/veh), C12orf56 (ProbeSet 11735607_a_at) / Fold change (Aza/veh), FGFR1OP (ProbeSet 11751329_s_at) / Fold change (ACY-1035/veh), FGFR1OP (ProbeSet 11751329_s_at) / Fold change (Aza/veh), VPS36 (ProbeSet 11739960_a_at) / Fold change (ACY-1035/veh), VPS36 (ProbeSet 11739960_a_at) / RFU SYPL1 (11715823_x_at) / Fold change /veh SYPL1 (11715823_x_at) / RFU IGFBP7 (11715501_s_at) / Fold change /veh IGFBP7 (11715501_s_at) / RFU REEP3 (11722064_at) / Fold change /veh REEP3 (11722064_at) / RFU IGLL1 (11728026_x_at) / Fold change /veh IGLL1 (11728026_x_at): dose or concentration left out as unconfirmed. Conditions: MV-4-11 cells, 48 hours.

Turning to `Nc1ncn([C@@H]2O[C@H](CO)[C@@H](O)[C@H]2O)c(=O)n1` [azacitidine], the “RFU CMKLR1 (11741424_a_at)” value turned out to be 16.54 RFU.
